Values quoted from earlier work as cited in US11672759B2 (priority 2017, dated 2023).

Settings: estimated

## COc1cc2c(c(OC)c1OC)-c1ccc(OC)c(=O)cc1[C@@H](NC(C)=O)CC2 [colchicine, N-((7S)-5,6,7,9-tetrahydro-1,2,3,10-tetramethoxy-9-oxobenzo(a)heptalen-7-yl)-acetamide]
  effective dose: approximately 0.015 mg/kg
  toxic dose: greater than 0.1 mg/kg
  typically lethal dose: approximately 0.8 mg/kg
